Reference: patent US7192906B2, “Substituted pyrazole derivatives, production process thereof, and herbicide compositions containing the derivatives” (SDS Biotech K.K., priority 2001, dated 2007)

Key:
Format in all cases: in vivo
Stellaria media [1] = experiment: Test Example 2 upland soil treatment; details: Table 5, upland soil treatment, index 0-5
Method in brief: (§1)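 Dose of 1 kg active ingredient per hectare, given as diluted wettable powder to the soil surface the day after sowing in upland soil (~1 cm cover). Effect rated 21 days on: 5 for ≥90%, 4 for 70–<90%, down to 0 for <10%.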

Digitaria adscendens [2] = experiment: Test Example 2 upland soil treatment; details: Table 5, upland soil treatment, index 0-5
Method in brief: as §1

Setaria viridis [3] = experiment: Test Example 2 upland soil treatment; details: Table 5, upland soil treatment, index 0-5
Method in brief: as §1

Chenopodium album [4] = experiment: Test Example 2 upland soil treatment; details: Table 5, upland soil treatment, index 0-5
Method in brief: as §1

Scirpus juncoides = experiment: Test Example 3 paddy field treatment; details: Table 6, paddy field treatment, active ingredient 1 kg per hectare, 21st day after dropping, index 0-5
Method in brief: (§2)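 Scoring used a 0–5 scale of herbicidal effect or phytotoxicity, from <10% to ≥90%, taken 21 days after treatment. Treatment was 1 kg a.i./ha as diluted wettable powder dripped onto 4 cm-deep flooded pots sown with the weeds, 10 days after transplanting two-leaf Koshihikari rice.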

Ammannia multiflora = experiment: Test Example 3 paddy field treatment; details: Table 6, paddy field treatment, active ingredient 1 kg per hectare, 21st day after dropping, index 0-5
Method in brief: as §2

Echinochloa crusgalli = experiment: Test Example 3 paddy field treatment; details: Table 6, paddy field treatment, active ingredient 1 kg per hectare, 21st day after dropping, index 0-5
Method in brief: as §2

Monochoria vaginalis = experiment: Test Example 3 paddy field treatment; details: Table 6, paddy field treatment, active ingredient 1 kg per hectare, 21st day after dropping, index 0-5
Method in brief: as §2

Rice (Oryza sativa) = experiment: Test Example 3 paddy field treatment, crop phytotoxicity; details: Table 6, paddy field treatment, transplanted rice, active ingredient 1 kg per hectare, 21st day after dropping, index 0-5
Method in brief: as §2

[5] = system: wheat (Triticum aestivum); experiment: Test Example 1 upland field foliage treatment, crop phytotoxicity; details: Table 4, upland field foliage treatment, index 0-5
Method in brief: (§3)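 A leaf-surface application at an active-ingredient rate of 1 kg per hectare was made to 14-day-old plants in upland soil. Evaluation followed 21 days later using a six-grade scale, where grade 5 means at least 90% kill or phytotoxicity.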

soybean (Glycine max) [6] = experiment: as above; details: Table 4, upland field foliage treatment, index 0-5
Method in brief: as §3

[7] = system: wheat (Triticum aestivum); experiment: Test Example 2 upland soil treatment, crop phytotoxicity; details: Table 5, upland soil treatment, index 0-5
Method in brief: as §1

soybean (Glycine max) [8] = experiment: as above; details: Table 5, upland soil treatment, index 0-5
Method in brief: as §1

Stellaria media [9] = experiment: Test Example 1 upland field foliage treatment; details: Table 4, upland field foliage treatment, index 0-5
Method in brief: as §3

Digitaria adscendens [10] = experiment: Test Example 1 upland field foliage treatment; details: Table 4, upland field foliage treatment, index 0-5
Method in brief: as §3

Setaria viridis [11] = experiment: Test Example 1 upland field foliage treatment; details: Table 4, upland field foliage treatment, index 0-5
Method in brief: as §3

Chenopodium album [12] = experiment: Test Example 1 upland field foliage treatment; details: Table 4, upland field foliage treatment, index 0-5
Method in brief: as §3

SMILES | Herbicidal activity SM: Stellaria media (Stellaria media [1]) | Herbicidal activity DA: Digitaria adscendens (Digitaria adscendens [2]) | Herbicidal activity SV: Setaria viridis (Setaria viridis [3]) | Herbicidal activity CA: Chenopodium album (Chenopodium album [4]) | Herbicidal activity SJ (Scirpus juncoides) | Herbicidal activity AM (Ammannia multiflora) | Herbicidal activity EC (Echinochloa crusgalli) | Herbicidal activity MV (Monochoria vaginalis) | Herbicidal activity (phytotoxicity) OS (Rice (Oryza sativa)) | Herbicidal activity (phytotoxicity) TA: Wheat (Triticum aestivum) [5] | Herbicidal activity (phytotoxicity) GM: Soybean (Glycine max) (soybean (Glycine max) [6]) | Herbicidal activity (phytotoxicity) TA: Wheat (Triticum aestivum) [7] | Herbicidal activity (phytotoxicity) GM: Soybean (Glycine max) (soybean (Glycine max) [8]) | Herbicidal activity SM: Stellaria media (Stellaria media [9]) | Herbicidal activity DA: Digitaria adscendens (Digitaria adscendens [10]) | Herbicidal activity SV: Setaria viridis (Setaria viridis [11]) | Herbicidal activity CA: Chenopodium album (Chenopodium album [12])
C=CCON=C(Cn1cc(C)c(-c2ccccc2)n1)C(=O)NC [Compound 105] | 4 (herbicidal effect of not less than 70% and less than 90%, or phytotoxicity of 70% or more and less than 90%) | 4 (herbicidal effect of not less than 70% and less than 90%, or phytotoxicity of 70% or more and less than 90%) | 4 (herbicidal effect of not less than 70% and less than 90%, or phytotoxicity of 70% or more and less than 90%) | 4 (herbicidal effect of not less than 70% and less than 90%, or phytotoxicity of 70% or more and less than 90%) | 4 (herbicidal effect of not less than 70% and less than 90%, or phytotoxicity of 70% or more and less than 90%) | 5 (herbicidal effect of not less than 90%, or phytotoxicity of 90% or more) | 4 (herbicidal effect of not less than 70% and less than 90%, or phytotoxicity of 70% or more and less than 90%) | 5 (herbicidal effect of not less than 90%, or phytotoxicity of 90% or more) | 0 (herbicidal effect of not less than 0% and less than 10%, or phytotoxicity of 0% or more and less than 10%) | 0 (herbicidal effect of not less than 0% and less than 10%, or phytotoxicity of 0% or more and less than 10%) | 0 (herbicidal effect of not less than 0% and less than 10%, or phytotoxicity of 0% or more and less than 10%) | 0 (herbicidal effect of not less than 0% and less than 10%, or phytotoxicity of 0% or more and less than 10%) | 0 (herbicidal effect of not less than 0% and less than 10%, or phytotoxicity of 0% or more and less than 10%) | 5 (herbicidal effect of not less than 90%, or phytotoxicity of 90% or more) | 5 (herbicidal effect of not less than 90%, or phytotoxicity of 90% or more) | 5 (herbicidal effect of not less than 90%, or phytotoxicity of 90% or more) | 5 (herbicidal effect of not less than 90%, or phytotoxicity of 90% or more)
CNC(=O)C(Cn1cc(C)c(-c2ccc(C=NOC)cc2)n1)=NOC [Compound 111] | 5 (herbicidal effect of not less than 90%, or phytotoxicity of 90% or more) | 4 (herbicidal effect of not less than 70% and less than 90%, or phytotoxicity of 70% or more and less than 90%) | 4 (herbicidal effect of not less than 70% and less than 90%, or phytotoxicity of 70% or more and less than 90%) | 5 (herbicidal effect of not less than 90%, or phytotoxicity of 90% or more) | 5 (herbicidal effect of not less than 90%, or phytotoxicity of 90% or more) | 5 (herbicidal effect of not less than 90%, or phytotoxicity of 90% or more) | 5 (herbicidal effect of not less than 90%, or phytotoxicity of 90% or more) | 5 (herbicidal effect of not less than 90%, or phytotoxicity of 90% or more) | 0 (herbicidal effect of not less than 0% and less than 10%, or phytotoxicity of 0% or more and less than 10%) | 0 (herbicidal effect of not less than 0% and less than 10%, or phytotoxicity of 0% or more and less than 10%) | 0 (herbicidal effect of not less than 0% and less than 10%, or phytotoxicity of 0% or more and less than 10%) | 0 (herbicidal effect of not less than 0% and less than 10%, or phytotoxicity of 0% or more and less than 10%) | 0 (herbicidal effect of not less than 0% and less than 10%, or phytotoxicity of 0% or more and less than 10%) | 5 (herbicidal effect of not less than 90%, or phytotoxicity of 90% or more) | 4 (herbicidal effect of not less than 70% and less than 90%, or phytotoxicity of 70% or more and less than 90%) | 4 (herbicidal effect of not less than 70% and less than 90%, or phytotoxicity of 70% or more and less than 90%) | 5 (herbicidal effect of not less than 90%, or phytotoxicity of 90% or more)
CON=C(Cn1cc(C)c(-c2ccccc2)n1)C(=O)N1CCCC1 [Compound 118] | 4 (herbicidal effect of not less than 70% and less than 90%, or phytotoxicity of 70% or more and less than 90%) | 3 (herbicidal effect of not less than 50% and less than 70%, or phytotoxicity of 50% or more and less than 70%) | 3 (herbicidal effect of not less than 50% and less than 70%, or phytotoxicity of 50% or more and less than 70%) | 4 (herbicidal effect of not less than 70% and less than 90%, or phytotoxicity of 70% or more and less than 90%) | 4 (herbicidal effect of not less than 70% and less than 90%, or phytotoxicity of 70% or more and less than 90%) | 4 (herbicidal effect of not less than 70% and less than 90%, or phytotoxicity of 70% or more and less than 90%) | 3 (herbicidal effect of not less than 50% and less than 70%, or phytotoxicity of 50% or more and less than 70%) | 4 (herbicidal effect of not less than 70% and less than 90%, or phytotoxicity of 70% or more and less than 90%) | 0 (herbicidal effect of not less than 0% and less than 10%, or phytotoxicity of 0% or more and less than 10%) | 0 (herbicidal effect of not less than 0% and less than 10%, or phytotoxicity of 0% or more and less than 10%) | 0 (herbicidal effect of not less than 0% and less than 10%, or phytotoxicity of 0% or more and less than 10%) | 0 (herbicidal effect of not less than 0% and less than 10%, or phytotoxicity of 0% or more and less than 10%) | 0 (herbicidal effect of not less than 0% and less than 10%, or phytotoxicity of 0% or more and less than 10%) | 5 (herbicidal effect of not less than 90%, or phytotoxicity of 90% or more) | 4 (herbicidal effect of not less than 70% and less than 90%, or phytotoxicity of 70% or more and less than 90%) | 3 (herbicidal effect of not less than 50% and less than 70%, or phytotoxicity of 50% or more and less than 70%) | 4 (herbicidal effect of not less than 70% and less than 90%, or phytotoxicity of 70% or more and less than 90%)
